Test results: US20240158446A1, “CYCLIC COMPOUND HAVING SELECTIVE INHIBITORY ACTION ON KRAS OVER HRAS AND NRAS” (CHUGAI SEIYAKU KABUSHIKI KAISHA, priority 2021, published 2024)
pKd: −log10 of the molar value. Read-outs that look alike come from different tables or passages of the source. *1 amine or outer side, *2 acyl side, *3 side chain or, on linkers, in order; H or OH if unused. Where a SMILES comes first, the peptide text is derived from it. Bridges are numbered along the chain shown (N, C = ends). [ ]: non-standard residue; d: D form. The star is where a group is joined. hPhe(3,5-F2-4-CF3) = N[C@@H](CCc1cc(F)c(C(F)(F)F)c(F)c1)C(=O)O; hPhe(3-Cl-4-CF3) = N[C@@H](CCc1ccc(C(F)(F)F)c(Cl)c1)C(=O)O; NPrPhe(4-CF3) = CCCN[C@@H](Cc1ccc(C(F)(F)F)cc1)C(=O)O; NEtPhe(4-CF3) = CCN[C@@H](Cc1ccc(C(F)(F)F)cc1)C(=O)O; X19 = CCCN([C@@H](CC1CCC(F)(F)CC1)C(=O)[*:2])[*:1]; NEtPhe(4-Me) = CCN[C@@H](Cc1ccc(C)cc1)C(=O)O; NMeAbu(4,4,4-F3) = CN[C@@H](CC(F)(F)F)C(=O)O; Pip(4,4-F2) = O=C(O)[C@@H]1CC(F)(F)CCN1; NMeGly(cPent) = CN[C@H](C(=O)O)C1CCCC1; Hyp = O=C(O)[C@@H]1C[C@@H](O)CN1; NMeD = CN[C@@H](CC(=O)O)C(=O)O; NMeL = CN[C@@H](CC(C)C)C(=O)O; Morpholide = C1CN(*)CCO1; NMeA = CN[C@@H](C)C(=O)O; Ac5c = NC1(C(=O)O)CCCC1; Aze = O=C(O)[C@@H]1CCN1; Ac3c = NC1(C(=O)O)CC1; X24 = CC1(C)CCN(*)C1; NEtG = CCNCC(=O)O; Sar = CNCC(=O)O

Columns and labels:
[1] = molecular target: GDP-bound HRAS wild-type protein (Homo sapiens, UniProt P01112); experiment: Binding to HRAS by surface plasmon resonance (SPR), Single Cycle Kinetics; settings: SPR, GDP-bound HRAS wild-type protein vs GDP-bound KRAS wild-type protein
Chain of GDP-bound HRAS wild-type protein (P01112 whole entry): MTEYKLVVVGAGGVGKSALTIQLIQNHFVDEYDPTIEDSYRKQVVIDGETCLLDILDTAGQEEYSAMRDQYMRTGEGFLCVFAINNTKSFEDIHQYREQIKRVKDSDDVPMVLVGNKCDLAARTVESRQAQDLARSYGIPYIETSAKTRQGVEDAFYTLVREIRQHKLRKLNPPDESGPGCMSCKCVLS

[2] = molecular target: GDP-bound KRAS wild-type protein (Homo sapiens, UniProt P01116); experiment: Binding to KRAS by surface plasmon resonance (SPR), Single Cycle Kinetics; settings: GDP-bound KRAS wild-type protein, read-out: KRAS KD
Chain of GDP-bound KRAS wild-type protein (P01116 whole entry): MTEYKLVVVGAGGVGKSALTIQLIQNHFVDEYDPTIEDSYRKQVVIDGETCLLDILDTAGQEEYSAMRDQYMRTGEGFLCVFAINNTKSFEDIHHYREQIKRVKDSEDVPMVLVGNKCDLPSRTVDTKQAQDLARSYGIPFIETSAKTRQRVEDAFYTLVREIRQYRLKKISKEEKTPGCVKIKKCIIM

[3] = molecular target: GDP-bound NRAS wild-type protein (Homo sapiens, UniProt P01111); experiment: Binding to NRAS by surface plasmon resonance (SPR), Single Cycle Kinetics; settings: SPR, GDP-bound NRAS wild-type protein vs GDP-bound KRAS wild-type protein
Chain of GDP-bound NRAS wild-type protein (P01111 whole entry): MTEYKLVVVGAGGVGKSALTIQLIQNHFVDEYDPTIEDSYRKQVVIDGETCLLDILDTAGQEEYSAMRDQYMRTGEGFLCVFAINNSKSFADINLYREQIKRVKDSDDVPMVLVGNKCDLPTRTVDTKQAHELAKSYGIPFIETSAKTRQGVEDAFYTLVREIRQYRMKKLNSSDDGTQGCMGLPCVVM

[4] = SPR Single Cycle Kinetics, 1:1 binding model

pKd [2, 4]	pKd ([2]; SPR, Single Cycle Kinetics)	Compound	HRAS/KRAS (ratio of KD value with respect to HRAS to KD value with respect to KRAS) [1]	NRAS/KRAS (ratio of KD value with respect to NRAS to KD value with respect to KRAS) [3]	HRAS/KRAS (ratio of KD value for HRAS to KD value for KRAS) [1]	NRAS/KRAS (ratio of KD value for NRAS to KD value for KRAS) [3]
8.77		CCCN1C(=O)[C@@H]2CCN2C(=O)CN(C)C(=O)[C@H]([C@@H](C)CC)NC(=O)[C@H](CC(C)C)N(C)C(=O)C[C@@H](C(=O)N2CCOCC2)N(C)C(=O)[C@H](CC(F)(F)F)N(C)C(=O)C2(CCCC2)NC(=O)[C@@H]2CCCN2C(=O)[C@H](CCc2cc(F)c(C(F)(F)F)c(F)c2)NC(=O)CN(C)C(=O)[C@@H]1Cc1ccc(C(F)(F)F)cc1 [PP0803] ([NMeL]I[Sar][Aze][NPrPhe(4-CF3)][Sar][hPhe(3,5-F2-4-CF3)]P[Ac5c][NMeAbu(4,4,4-F3)][NMeD]-Morpholide; lactam N-11)	B (a compound having 3 or more and less than 10 is denoted as B)	C (A compound having a KD ratio of 0.1 or more and less than 3 is denoted as C)		
10.44		CCO[C@@H]1C[C@H]2C(=O)NC3(CCC3)C(=O)N(C)[C@@H](C3CCCC3)C(=O)N(C)[C@H](C(=O)N(C)C)CC(=O)N(C)[C@@H](CC(C)(C)C)C(=O)N[C@@H]([C@@H](C)CC)C(=O)N(C)CC(=O)N(C)[C@H]3CCCCN(C3=O)[C@@H](Cc3ccc(C(F)(F)F)cc3)C(=O)N(C)CC(=O)N[C@@H](CCc3cc(F)c(C(F)(F)F)c(F)c3)C(=O)N2C1 [PP0699]	C (A compound having a KD ratio of 0.1 or more and less than 3 is denoted as C)	C (A compound having a KD ratio of 0.1 or more and less than 3 is denoted as C)		
9.82		CCCN1C(=O)CN(C)C(=O)CN(CC)C(=O)[C@H]([C@@H](C)CC)NC(=O)[C@H](CC(C)C)N(C)C(=O)C[C@@H](C(=O)N2CCOCC2)N(C)C(=O)[C@H](C2CCCC2)N(C)C(=O)C2(CCCC2)NC(=O)[C@@H]2C[C@@H](OC)CN2C(=O)[C@H](CCc2ccc(C(F)(F)F)c(Cl)c2)NC(=O)CN(C)C(=O)[C@@H]1Cc1ccc(C(F)(F)F)cc1 [PP0296] ([NMeL]I[NEtG][Sar][NPrPhe(4-CF3)][Sar][hPhe(3-Cl-4-CF3)][Hyp](Me)[Ac5c][NMeGly(cPent)][NMeD]-Morpholide; lactam N-11)			C (A compound having a KD ratio of 0.1 or more and less than 3 is denoted as C)	B (a compound having 3 or more and less than 10 is denoted as B)
9.68		CCCN1C(=O)[C@@H]2CCN2C(=O)[C@H](C)N(C)C(=O)[C@H]([C@@H](C)CC)NC(=O)[C@H](CC(C)C)N(C)C(=O)C[C@@H](C(=O)N2CCOCC2)N(C)C(=O)[C@H](C2CCCC2)N(C)C(=O)C2(CCCC2)NC(=O)[C@@H]2CCCN2C(=O)[C@H](CCc2ccc(C(F)(F)F)c(Cl)c2)NC(=O)CN(C)C(=O)[C@@H]1CC1CCC(F)(F)CC1 [PP0527] ([NMeL]I[NMeA][Aze][X19][Sar][hPhe(3-Cl-4-CF3)]P[Ac5c][NMeGly(cPent)][NMeD]-Morpholide; lactam N-11)	C (A compound having a KD ratio of 0.1 or more and less than 3 is denoted as C)	C (A compound having a KD ratio of 0.1 or more and less than 3 is denoted as C)		
8.47		CCCN1C(=O)CN(C)C(=O)[C@@H]2CCN2C(=O)[C@H]([C@@H](C)CC)NC(=O)[C@H](CC(C)C)N(C)C(=O)C[C@@H](C(=O)N2CCOCC2)N(C)C(=O)[C@H](C2CCCC2)N(C)C(=O)C2(CCCC2)NC(=O)[C@@H]2CC(F)(F)CCN2C(=O)[C@H](CCc2ccc(C(F)(F)F)c(Cl)c2)NC(=O)CN(C)C(=O)[C@@H]1Cc1ccc(C(F)(F)F)cc1 [PP0312] ([NMeL]I[Aze][Sar][NPrPhe(4-CF3)][Sar][hPhe(3-Cl-4-CF3)][Pip(4,4-F2)][Ac5c][NMeGly(cPent)][NMeD]-Morpholide; lactam N-11)			B (a compound having 3 or more and less than 10 is denoted as B)	B (a compound having 3 or more and less than 10 is denoted as B)
9.26		CCCN1C(=O)CN(C)C(=O)CN(C)C(=O)[C@H]([C@@H](C)CC)NC(=O)[C@H](CC(C)C)N(C)C(=O)C[C@@H](C(=O)N2CCC(C)(C)C2)N(C)C(=O)[C@H](C2CCCC2)N(C)C(=O)C2(CCCC2)NC(=O)[C@@H]2CCCN2C(=O)[C@H](CCc2ccc(C(F)(F)F)c(Cl)c2)NC(=O)CN(C)C(=O)[C@@H]1Cc1ccc(C(F)(F)F)cc1 [PP0177] ([NMeL]I[Sar][Sar][NPrPhe(4-CF3)][Sar][hPhe(3-Cl-4-CF3)]P[Ac5c][NMeGly(cPent)][NMeD]-X24; lactam N-11)			C (A compound having a KD ratio of 0.1 or more and less than 3 is denoted as C)	B (a compound having 3 or more and less than 10 is denoted as B)
	9.72	CCO[C@@H]1C[C@H]2C(=O)NC3(CC(C)(C)C3)C(=O)N(C)[C@@H](C(CC)CC)C(=O)N(C)[C@H](C(=O)N(C)C)CC(=O)N(C)[C@@H](COC)C(=O)N[C@@H]([C@@H](C)CC)C(=O)N(C)CC(=O)N(C)[C@H]3C/C=C\CCN(C3=O)[C@@H](Cc3ccc(C(F)(F)F)cc3)C(=O)N(C)CC(=O)N[C@@H](CCc3ccc(C(F)(F)F)c(OC)c3)C(=O)N2C1 [PP2157]			A (a compound having 10 or more and less than 20 is denoted as A)	A (a compound having 10 or more and less than 20 is denoted as A)
	9.54	CCO[C@@H]1C[C@H]2C(=O)NC3(CC(C)(C)C3)C(=O)N(C)[C@@H](C(CC)CC)C(=O)N(C)[C@H](C(=O)N(C)C)CC(=O)N(C)[C@H]3CCCCC/C=C/c4ccc(cc4)C[C@@H](C(=O)N(C)CC(=O)N[C@@H](CCc4ccc(Cl)c(Cl)c4)C(=O)N2C1)N1CC/C=C\C[C@@H](C1=O)N(C)C(=O)CN(C)C(=O)[C@H]([C@@H](C)CC)NC3=O [PP3050]			A (a compound having 10 or more and less than 20 is denoted as A)	AA (a compound having 20 or more is denoted as AA)
9.46		CC[C@H](C)[C@@H]1NC(=O)[C@H](CC(C)C)N(C)C(=O)C[C@@H](C(=O)N2CCOCC2)N(C)C(=O)[C@H](C2CCCC2)N(C)C(=O)C2(CC2)NC(=O)[C@@H]2CCCN2C(=O)[C@H](CCc2ccc(C(F)(F)F)c(Cl)c2)NC(=O)CN(C)C(=O)[C@H](Cc2ccc(C(F)(F)F)cc2)N(CC)C(=O)[C@@H]2CCN2C(=O)[C@H](C)N(C)C1=O [PP0220] ([NMeL]I[NMeA][Aze][NEtPhe(4-CF3)][Sar][hPhe(3-Cl-4-CF3)]P[Ac3c][NMeGly(cPent)][NMeD]-Morpholide; lactam N-11)			C (A compound having a KD ratio of 0.1 or more and less than 3 is denoted as C)	C (A compound having a KD ratio of 0.1 or more and less than 3 is denoted as C)
	9.92	CCO[C@@H]1C[C@H]2C(=O)NC3(CC(C)(C)C3)C(=O)N(C)[C@@H](C3CCCC3)C(=O)N(C)[C@H](C(=O)N(C)CC)CC(=O)N(C)[C@H]3CCCCCCc4ccc(cc4)C[C@@H](C(=O)N(C)CC(=O)N[C@@H](CCc4ccc(C(F)(F)F)c(OC)c4)C(=O)N2C1)N1CC/C=C\C[C@@H](C1=O)N(C)C(=O)CN(C)C(=O)[C@H]([C@@H](C)CC)NC3=O [PP2260, (1S,7S,11R,13S,19S,22S,26S,29S,35S,37Z)-19-cyclopentyl-11-ethoxy-N-ethyl-7-[2-[3-methoxy-4-(trifluoromethyl)phenyl]ethyl]-N,3,3′,3′,18,21,25,31,34-nonamethyl-29-[(1S)-1-methylpropyl]-2,5,8,14,17,20,24,27,30,33,55-undecaoxo-spiro[3,6,9,15,18,21,25,28,31,34,41-undecazapentacyclo[24.15.11.2^43,46.1^35,41.0^9,13]pentapentaconta-37,43(54),44,46(53)-tetraene-16,1′-cyclobutane]-22-carboxamide]			A (a compound having 10 or more and less than 20 is denoted as A)	A (a compound having 10 or more and less than 20 is denoted as A)
9.92		CCO[C@@H]1C[C@H]2C(=O)NC3(CCCC3)C(=O)N(C)[C@@H](C3CCCC3)C(=O)N(C)[C@H](C(=O)N3CCOCC3)CC(=O)N(C)[C@@H](CC(C)C)C(=O)N[C@@H]([C@@H](C)CC)C(=O)N(C)CC(=O)N(C)CC(=O)N(CC)[C@@H](Cc3ccc(C)cc3)C(=O)N(C)CC(=O)N[C@@H](CCc3ccc(C(F)(F)F)c(Cl)c3)C(=O)N2C1 [PP0042] ([NMeL]I[Sar][Sar][NEtPhe(4-Me)][Sar][hPhe(3-Cl-4-CF3)][Hyp](Et)[Ac5c][NMeGly(cPent)][NMeD]-Morpholide; lactam N-11)			C (A compound having a KD ratio of 0.1 or more and less than 3 is denoted as C)	C (A compound having a KD ratio of 0.1 or more and less than 3 is denoted as C)
10.52		CCCN1C(=O)[C@@H]2CCN2C(=O)[C@H](C)N(C)C(=O)[C@H]([C@@H](C)CC)NC(=O)[C@H](CC(C)C)N(C)C(=O)C[C@@H](C(=O)N(C)C)N(C)C(=O)[C@H](C2CCCC2)N(C)C(=O)C2(CCCC2)NC(=O)[C@@H]2C[C@@H](OCC)CN2C(=O)[C@H](CCc2ccc(C(F)(F)F)c(Cl)c2)NC(=O)CN(C)C(=O)[C@@H]1Cc1ccc(C(F)(F)F)cc1 [PP0438] ([NMeL]I[NMeA][Aze][NPrPhe(4-CF3)][Sar][hPhe(3-Cl-4-CF3)][Hyp](Et)[Ac5c][NMeGly(cPent)][NMeD]-NMe2; lactam N-11)	C (A compound having a KD ratio of 0.1 or more and less than 3 is denoted as C)	C (A compound having a KD ratio of 0.1 or more and less than 3 is denoted as C)		
